Source: ChEMBL document CHEMBL1136186, “Microcystin analogues comprised only of Adda and a single additional amino acid retain moderate activity as PP1/PP2A inhibitors” (Bioorg Med Chem Lett, 2003)
pIC50: −log10 of the molar value. *1 amine or outer side, *2 acyl side, *3 side chain or, on linkers, in order; H or OH if unused. Where a SMILES comes first, the peptide text is derived from it. Bridges are numbered along the chain shown (N, C = ends). [ ]: non-standard residue; d: D form. Adda = CO[C@@H](Cc1ccccc1)[C@@H](C)/C=C(C)/C=C/[C@H](N[*:1])[C@H](C)C(=O)[*:2]; dAsp(3S-Me) = C[C@H](C(=O)[*:3])[C@@H](N[*:1])C(=O)[*:2]; d(γGlu) = O=C(O)[C@@H](CCC(=O)[*:2])N[*:1]; NMeDha = C=C(NC)C(=O)O

What was measured:
[1] = target: T1, Serine/threonine-protein phosphatase 2A catalytic subunit alpha isoform (Bos taurus, UniProt P67774); assay: Inhibitory concentration against protein phosphatase 2A (PP2A) using pNPP assay; design: species or system Oryctolagus cuniculus
T1 sequence (P67774 whole entry, canonical isoform): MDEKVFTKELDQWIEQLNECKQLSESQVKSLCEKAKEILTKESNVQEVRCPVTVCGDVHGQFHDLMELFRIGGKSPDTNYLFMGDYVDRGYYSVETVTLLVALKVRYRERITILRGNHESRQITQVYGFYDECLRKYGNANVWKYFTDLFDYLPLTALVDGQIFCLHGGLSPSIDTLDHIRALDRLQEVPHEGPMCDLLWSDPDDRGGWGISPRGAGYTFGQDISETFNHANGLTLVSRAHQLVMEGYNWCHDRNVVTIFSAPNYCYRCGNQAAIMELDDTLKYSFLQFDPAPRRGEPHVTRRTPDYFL

[2] = species: Oryctolagus cuniculus; assay: Ratio of inhibition of PP1 to that of inhibition of PP2A using phosphorylase-a assay
[3] = target: T1, Serine/threonine-protein phosphatase 2A catalytic subunit alpha isoform; assay: Inhibitory concentration against protein phosphatase 2A (PP2A) using phosphorylase-a assay; design: species or system Oryctolagus cuniculus

CO[C@@H](Cc1ccccc1)[C@@H](C)/C=C(C)/C=C/[C@H](NC(C)=O)[C@H](C)C(=O)N1CCC[C@@H]1C(=O)O
pIC50 [1]: < 4.60
Ratio [2]: 2

CO[C@@H](Cc1ccccc1)[C@@H](C)/C=C(C)/C=C/[C@H](NC(C)=O)[C@H](C)C(=O)N[C@@H](C)C(=O)O
pIC50 [3]: 5.11
Ratio [2]: 1.22

CO[C@@H](Cc1ccccc1)[C@@H](C)/C=C(C)/C=C/[C@H](NC(C)=O)[C@H](C)C(=O)N(CC(=O)O)CC(=O)O
pIC50 [1]: < 4.00

COC(=O)[C@@H]1CCCN1C(=O)[C@@H](C)[C@H](/C=C/C(C)=C/[C@H](C)[C@H](Cc1ccccc1)OC)NC(C)=O
pIC50 [1]: < 4.00

C=C1C(=O)N[C@H](C)C(=O)N[C@@H](CC(C)C)C(=O)N[C@@H](C(=O)O)[C@H](C)C(=O)N[C@@H](C)C(=O)N[C@@H](/C=C/C(C)=C/[C@H](C)[C@H](Cc2ccccc2)OC)[C@H](C)C(=O)N[C@@H](C(=O)O)CCC(=O)N1C (A[Adda][d(γGlu)][NMeDha][dA]L[dAsp(3S-Me)]-OH; lactam N-7)
pIC50 [1]: 8.52
pIC50 [3]: 9.52
Ratio [2]: 1

CO[C@@H](Cc1ccccc1)[C@@H](C)/C=C(C)/C=C/[C@H](NC(C)=O)[C@H](C)C(=O)N1C[C@H](C(=O)O)C[C@@H]1C(=O)O
pIC50 [1]: < 4.00

CO[C@@H](Cc1ccccc1)[C@@H](C)/C=C(C)/C=C/[C@H](NC(C)=O)[C@H](C)C(=O)N1C[C@@H](C(=O)O)C[C@@H]1C(=O)O
pIC50 [1]: < 4.00

COC(=O)[C@H]1CCCN1C(=O)[C@@H](C)[C@H](/C=C/C(C)=C/[C@H](C)[C@H](Cc1ccccc1)OC)NC(C)=O
pIC50 [1]: < 4.00

CO[C@@H](Cc1ccccc1)[C@@H](C)/C=C(C)/C=C/[C@H](NC(C)=O)[C@H](C)C(=O)N1[C@@H](C(=O)O)CC[C@H]1C(=O)O
pIC50 [1]: 5.00
Ratio [2]: > 5

CO[C@@H](Cc1ccccc1)[C@@H](C)/C=C(C)/C=C/[C@H](NC(C)=O)[C@H](C)C(=O)N1C[C@H](O[Si](C(C)C)(C(C)C)C(C)C)C[C@@H]1C(=O)O
pIC50 [1]: < 4.20
Ratio [2]: > 2

CO[C@@H](Cc1ccccc1)[C@@H](C)/C=C(C)/C=C/[C@H](NC(C)=O)[C@H](C)C(=O)N1[C@H](C(=O)O)CC[C@H]1C(=O)O
pIC50 [1]: < 4.41
Ratio [2]: > 1.3

CC(=O)N[C@@H](/C=C/C(C)=C/CCCc1ccccc1)[C@H](C)C(=O)N[C@H](C)C(=O)O
pIC50 [1]: < 4.00

CO[C@@H](Cc1ccccc1)[C@@H](C)/C=C(C)/C=C/[C@H](NC(C)=O)[C@H](C)C(=O)N1CCC[C@H]1C(=O)O
pIC50 [1]: < 4.00

CC(=O)N[C@@H](/C=C/C(C)=C/c1ccc(-c2ccccc2)cc1)[C@H](C)C(=O)N[C@H](C)C(=O)O
pIC50 [1]: < 4.00

CC(=O)N[C@@H](/C=C/C(C)=C/c1ccccc1Cc1ccccc1)[C@H](C)C(=O)N[C@H](C)C(=O)O
pIC50 [1]: < 4.00

CO[C@@H](Cc1ccccc1)[C@@H](C)/C=C(C)/C=C/[C@H](NC(C)=O)[C@H](C)C(=O)NCC(=O)O
pIC50 [3]: 6.30
Ratio [2]: 1.11

CO[C@@H](Cc1ccccc1)[C@@H](C)/C=C(C)/C=C/[C@H](NC(C)=O)[C@H](C)C(=O)N1CCCC1
pIC50 [1]: < 4.00

CO[C@@H](Cc1ccccc1)[C@@H](C)/C=C(C)/C=C/[C@H](NC(C)=O)[C@H](C)C(=O)N1C[C@H](C(=O)O)C[C@H]1C(=O)O
pIC50 [1]: < 4.00

CO[C@@H](Cc1ccccc1)[C@@H](C)/C=C(C)/C=C/[C@H](NC(C)=O)[C@H](C)C(=O)N[C@H](C)C(=O)O
pIC50 [1]: 5.15
pIC50 [3]: 6.80
Ratio [2]: 6
